Among the data in patent publication US20220235006A1, “PYRIDINE DERIVATIVES AS TMEM16A MODULATORS FOR USE IN THE TREATMENT OF RESPIRATORY CONDITIONS” (TMEM16A LIMITED, priority 2019, published 2022) are activation, EC50 and logD values, retold here.

As a reminder, the EC50 is the concentration needed to bring the measured effect to its halfway point.

The target in data set [1] is T1, human TMEM16A (TMEM16Aabc variant) (Homo sapiens, UniProt Q5XXA6, DEL476-501).
T1 sequence (Q5XXA6 with tags, fused parts or gaps isoform Q5XXA6-5 DEL539-564): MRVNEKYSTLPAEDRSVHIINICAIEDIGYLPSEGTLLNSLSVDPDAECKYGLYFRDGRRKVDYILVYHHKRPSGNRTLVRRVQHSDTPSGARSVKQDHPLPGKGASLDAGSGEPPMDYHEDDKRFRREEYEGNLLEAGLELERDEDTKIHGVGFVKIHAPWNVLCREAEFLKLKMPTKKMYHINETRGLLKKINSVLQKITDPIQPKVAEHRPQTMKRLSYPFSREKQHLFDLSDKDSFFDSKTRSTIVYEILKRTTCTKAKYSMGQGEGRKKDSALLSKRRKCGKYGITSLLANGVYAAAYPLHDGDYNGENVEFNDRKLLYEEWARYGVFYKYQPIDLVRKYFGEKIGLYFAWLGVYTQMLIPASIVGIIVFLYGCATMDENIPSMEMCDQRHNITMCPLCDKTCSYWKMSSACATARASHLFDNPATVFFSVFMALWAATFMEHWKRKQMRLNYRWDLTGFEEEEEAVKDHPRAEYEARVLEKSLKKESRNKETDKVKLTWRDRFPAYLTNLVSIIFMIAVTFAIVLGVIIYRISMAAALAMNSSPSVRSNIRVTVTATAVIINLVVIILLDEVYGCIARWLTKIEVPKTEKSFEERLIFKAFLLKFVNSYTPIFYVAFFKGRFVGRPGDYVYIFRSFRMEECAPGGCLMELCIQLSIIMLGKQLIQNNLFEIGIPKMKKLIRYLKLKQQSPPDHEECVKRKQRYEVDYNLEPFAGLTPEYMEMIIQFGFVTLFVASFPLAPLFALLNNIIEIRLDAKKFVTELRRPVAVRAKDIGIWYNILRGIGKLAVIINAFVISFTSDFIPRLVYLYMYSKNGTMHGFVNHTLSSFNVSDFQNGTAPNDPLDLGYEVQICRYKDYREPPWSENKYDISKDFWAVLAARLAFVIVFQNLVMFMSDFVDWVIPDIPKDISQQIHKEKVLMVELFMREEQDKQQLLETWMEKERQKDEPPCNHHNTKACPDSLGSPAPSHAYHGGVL
The data set is described as follows: Automated whole-cell patch clamp (Qpatch) TMEM16A potentiator assay in recombinant FRT cells. To be noted: for activation at 3.33 µM: percentage increase of baseline TMEM16A current, minimum n = 2, read-out: % Potentiation @ 3.33 uM Avg; for EC50: minimum n = 2. It counts as cell-based. How it is done:
Automated Whole-Cell Patch Clamp Assay to Detect TMEM16A Activity in Recombinant Cells
Fisher rat thyroid (FRT) cells stably expressing human TMEM16A (TMEM16Aabc variant; Dr Luis Galietta, Insituto Giannina, Italy) were cultured in T-75 flasks in Hams F-12 media with Coon's modification (Sigma) supplemented with 10% (v/v) foetal bovine serum, penicillin-streptomycin (10,000 U/mL/10000 μg/mL), G-418 (750 μg/mL), L-glutamine (2 mM) and sodium bicarbonate solution (7.5% v/v). At ˜90% confluence cells were harvested for experiments by detachment with a 2:1 (v/v) mixture of Detachin (BMS Biotechnology) and 0.25% (w/v) trypsin-EDTA.
FRT-TMEM16A cells were whole-cell patch clamped using an automated planar patch clamp system (Qpatch, Sophion). Briefly, once high resistance (GOhm) seals were established between the cells and the planar recording array the patch was ruptured using suction pulses to establish the whole-cell recording configuration of the patch clamp technique. The assay employed the following solutions (all reagents Sigma): Intracellular solution (mM): N-methyl-D-glucamine 130, CaCl2 18.2, MgCl2 1, HEPES 10, EGTA 10, BAPTA 20, Mg-ATP 2, pH 7.25, 325 mOsm with sucrose.
Extracellular solution (mM): N-methyl-D-glucamine 130, CaCl2 2, MgCl2 1, HEPES 10, pH 7.3, 320 mOsm with sucrose.
The intracellular solution buffers intracellular calcium at levels required to give ˜20% activation of the maximal TMEM16A mediated current (E020 for calcium ions). Cells were voltage clamped at a holding potential of −70mV and a combined voltage step (to +70 mV)/ramp (−90 my to +90 mV) was applied at 0.05 Hz. After a period of current stabilisation test compounds, solubilised in 100% (v/v) DMSO and subsequently diluted into extracellular solution, were applied to generate a cumulative concentration response curve. Each concentration of test compound was incubated for 5 minutes before addition of the next concentration. After the final concentration was tested a supramaximal concentration of either a known active positive modulator or the TMEM16A inhibitor, CaCCinhA01 (Del La Fuente et al, 2008) was added to define the upper and lower limits of the assay.
Compound activity was quantified by measuring the increase in current upon compound addition and expressing this as a percentage increase of baseline TMEM16A current level.
Peak TMEM16A current at +70 mV was plotted as a function of time over the assay period. Baseline current (IBL) was measured after a period of stabilisation. The increase in current for each compound addition was determined by taking the peak current during the incubation period and subtracting the current from the previous recording period and then expressing this as a percentage of the baseline current (% potentiation). For test compound concentration 1 in FIG. 1 this is:
For each additional concentration tested the increase in current was determined by subtracting the current from the previous incubation period and normalising the baseline value—for test concentration 2 in FIG. 1 this is:
The values for each test concentration were plotted as a cumulative function of concentration eg. for test concentration two this would be the sum of the peak changes measured during concentration one plus concentration two.
Background: Patch clamp records ionic current or voltage across a cell membrane.

Data set [2] in a line: Log D (pH7.4 shake flask). To be noted: pH 7.4; 1-octanol/phosphate buffer shake flask; read-out: mLogD (pH 7.4). It counts as physicochemical. As for the experimental part: Phosphate buffer (1 M) was diluted to 20 mM with deionised water and adjusted to pH 7.4 with phosphoric acid or sodium hydroxide. 1-octanol and phosphate buffer (20 mM) were saturated overnight by tumbling. The two phases were separated using a separation funnel. 5 μL of 5 mM compound cassette was added to 495 μL of octanol-saturated buffer and 495 μL buffer saturated octanol in a 96-well plate (top concentration 50 μM). Plate was shaken for 1 h and centrifuged at 25° C. for 5 min. 200 μL of each phase was transferred to a separate plate. The octanol layer was sampled first to avoid cross contamination. 5 μL of the solutions were transferred to 495 μL of quench solution* (max concentration 0.5 μM). In addition, 40 μL of buffer solution was added to 360 μL of quench solvent (max concentration 5 μM). Samples were analysed by LC-MS/MS. Benchmarking against a calibration curve for each compound and with reference to the control compounds sulpride, diclofenac, chlorpromazine and tamoxifen. *Quench solution was a 1:3:1 mixture (v/v/v) of Acetonitrile containing 0.1% formic acid and imipramine/labetalol, 200 nM:Acetonitrile:Water.

Regarding `CC(C)(C)NC(=O)c1cc(NC(=O)Cc2cc(O)c(C3(C#N)CC3)cc2F)ccn1` [Example 2.4, N-tert-Butyl-4-[[2-[4-(1-cyanocyclopropyl)-2-fluoro-5-hydroxy-phenyl]acetyl]amino]pyridine-2-carboxamide], in data set [1], the activation at 3.33 µM was determined as 356% and the EC50 turned out to be 69 nM. Moreover, in data set [2], the logD came out at 3.7.
Turning to `CC1(NC(=O)c2cc(NC(=O)Cc3cc(O)c(C(C)(C)C)cc3F)ccn2)CC1` [Example 1, 4-[[2-(4-tert-Butyl-2-fluoro-5-hydroxy-phenyl)acetyl]amino]-N-(1-methylcyclopropyl)pyridine-2-carboxamide], in data set [1], the activation at 3.33 µM was found to be 248% and the EC50 is 38 nM. The logD in data set [2] is above 4.2.
Regarding `CC(C)(C)c1cc(F)c(CC(=O)Nc2ccnc(C(=O)NC3(C(F)(F)F)CC3)c2)cc1O` [Example 1.7], in data set [1], the activation at 3.33 µM was determined as 202% and the EC50 came to 25 nM. For the same molecule, the logD in data set [2] is above 4.
`CC(C)(C#N)NC(=O)c1cc(NC(=O)Cc2cc(O)c(C(C)(C)C)cc2F)ccn1` [Example 1.4]: in data set [1], the activation at 3.33 µM is 200% and the EC50 was 37 nM. Further, in data set [2], the logD was above 4.1.
As for `CC(CO)c1cc(F)c(CC(=O)Nc2ccnc(C(=O)NC3(C(F)(F)F)CC3)c2)cc1O` (stereo not drawn) [Example 20, 4-[[2-[2-Fluoro-5-hydroxy-4-(2-hydroxy-1-methyl-ethyl)phenyl]acetyl]amino]-N-[1-(trifluoromethyl)cyclopropyl]pyridine-2-carboxamide], in data set [1], the activation at 3.33 µM worked out at 295% and the EC50 was 100 nM.
As to `CC(C)(C#N)NC(=O)c1cc(NC(=O)Cc2cc(O)c(C(C)(C)C)cc2Cl)ccn1` [Example 10, 4-[[2-(4-tert-Butyl-2-chloro-5-hydroxy-phenyl)acetyl]amino]-N-(1-cyano-1-methyl-ethyl)pyridine-2-carboxamide], in data set [1], the activation at 3.33 µM turned out to be 310% and the concentration giving a half-maximal response (EC50) was determined as 52 nM. Further, in data set [2], the logD was above 4.
With `O=C(Cc1cc(O)c(C2(CO)CC2)cc1F)Nc1ccnc(C(=O)NC2(C(F)(F)F)CC2)c1` [Example 2.16, 4-[[2-[2-Fluoro-5-hydroxy-4-[1-(hydroxymethyl)cyclopropyl]phenyl]acetyl]amino]-N-[1-(trifluoromethyl)cyclopropyl]pyridine-2-carboxamide], in data set [1], the activation at 3.33 µM was 227% and the EC50 was 76 nM.
As to `CC(C)(CO)c1cc(F)c(CC(=O)Nc2ccnc(C(=O)NC3(C#N)CCOCC3)c2)cc1O` [Example 12, N-(4-Cyanotetrahydropyran-4-yl)-4-[[2-[2-fluoro-5-hydroxy-4-(2-hydroxy-1,1-dimethyl-ethyl)phenyl]acetyl]amino]pyridine-2-carboxamide], in data set [1], the activation at 3.33 µM came out at 150% and the EC50 was found to be 118 nM.
With `CC(C)(O)c1cc(Cl)c(CC(=O)Nc2ccnc(C(=O)NC3(C(F)(F)F)CC3)c2)cc1O` [Example 19, 4-[[2-[2-Chloro-5-hydroxy-4-(1-hydroxy-1-methyl-ethyl)phenyl]acetyl]amino]-N-[1-(trifluoromethyl)cyclopropyl]pyridine-2-carboxamide], in data set [1], the activation at 3.33 µM worked out at 244% and the EC50 was 46 nM.
Regarding `CC(O)(c1cc(F)c(CC(=O)Nc2ccnc(C(=O)NC3(C(F)(F)F)CC3)c2)cc1O)C1CC1` (stereo not drawn) [Example 2.8, 4-[[2-[4-(1-Cyclopropyl-1-hydroxy-ethyl)-2-fluoro-5-hydroxy-phenyl]acetyl]amino]-N-[1-(trifluoromethyl)cyclopropyl]pyridine-2-carboxamide], in data set [1], the activation at 3.33 µM was found to be 302% and the EC50 came out at 77 nM.
The corresponding values for `CC(C)(C#N)NC(=O)c1cc(NC(=O)Cc2cc(O)c(C(C)(C)O)cc2F)ccn1` [Example 2.1, N-(1-Cyano-1-methyl-ethyl)-4-[[2-[2-fluoro-5-hydroxy-4-(1-hydroxy-1-methyl-ethyl)phenyl]acetyl]amino]pyridine-2-carboxamide] are 350% and 466 nM.
